{
  "source": "patent US20100267561A1",
  "about": "“HERBICIDAL PYRIDAZINONE DERIVATIVES” (priority 2007, published 2010)",
  "type_in_all_cases": "in vivo",
  "key": {"[1]": {"test_system": "Italian ryegrass (Lolium multiflorum)", "experiment": "Test C pre-/postemergence plant response", "conditions": "Preemergence", "procedure,_shortened": "(§1)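 Pre- and postemergence treatment, visual 0–100 rating vs controls at 15–25 days.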"}, "[2]": {"test_system": "spring wheat (Triticum aestivum)", "experiment": "Test C pre-/postemergence plant response", "conditions": "Preemergence", "procedure,_shortened": "as §1"}, "[3]": {"test_system": "winter barley (Hordeum vulgare)", "experiment": "Test C pre-/postemergence plant response", "conditions": "Preemergence", "procedure,_shortened": "as §1"}, "[4]": {"test_system": "Italian ryegrass (Lolium multiflorum)", "experiment": "Test E pre-/postemergence plant response", "conditions": "scale 0 to 100", "procedure,_shortened": "(§2)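 Formulated in a non-phytotoxic solvent mixture containing surfactant, compound was applied to soil at planting or sprayed on emerged plants at the 1- to 4-leaf stage. Visual comparison with controls followed 14 to 21 days in the greenhouse; 0 = no effect, 100 = complete control.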"}, "[5]": {"test_system": "annual bluegrass (Poa annua)", "experiment": "Test E pre-/postemergence plant response", "conditions": "scale 0 to 100", "procedure,_shortened": "as §2"}, "[6]": {"test_system": "broadleaf signalgrass (Brachiaria platyphylla)", "experiment": "Test E pre-/postemergence plant response", "conditions": "scale 0 to 100", "procedure,_shortened": "as §2"}, "[7]": {"test_system": "common mallow (Malva sylvestris)", "experiment": "Test E pre-/postemergence plant response", "conditions": "scale 0 to 100", "procedure,_shortened": "as §2"}, "[8]": {"test_system": "guineagrass (Panicum maximum)", "experiment": "Test E pre-/postemergence plant response", "conditions": "scale 0 to 100", "procedure,_shortened": "as §2"}, "[9]": {"test_system": "itchgrass (Rottboellia cochinchinensis)", "experiment": "Test E pre-/postemergence plant response", "conditions": "scale 0 to 100", "procedure,_shortened": "as §2"}, "[10]": {"test_system": "naked crabgrass (Digitaria nuda)", "experiment": "Test E pre-/postemergence plant response", "conditions": "scale 0 to 100", "procedure,_shortened": "as §2"}, "[11]": {"test_system": "pitted morningglory (Ipomoea lacunosa)", "experiment": "Test E pre-/postemergence plant response", "conditions": "scale 0 to 100", "procedure,_shortened": "as §2"}, "[12]": {"test_system": "purple nutsedge (Cyperus rotundus)", "experiment": "Test E pre-/postemergence plant response", "conditions": "scale 0 to 100", "procedure,_shortened": "as §2"}, "[13]": {"conditions": "8 g ai/ha, scale 0 to 100 (0 no effect, 100 complete control)"}, "[14]": {"conditions": "16 g ai/ha, scale 0 to 100 (0 no effect, 100 complete control)"}, "[15]": {"conditions": "31 g ai/ha, scale 0 to 100 (0 no effect, 100 complete control)"}, "[16]": {"conditions": "62 g ai/ha, scale 0 to 100, 0 no effect, 100 complete control"}},
  "data": [
    {"smiles": "COC(=O)Oc1cnn(C)c(=O)c1-n1nc(-c2ccc(Cl)cc2)cc1C", "note": "[Compound 33]", "values": [
      {"measurement": "Plant response rating, Ryegrass, Italian", "setting": "[1]; [13]", "result": 10},
      {"measurement": "Plant response rating, Ryegrass, Italian", "setting": "[1]; [14]", "result": 65},
      {"measurement": "Plant response rating, Ryegrass, Italian", "setting": "[1]; [15]", "result": 100},
      {"measurement": "Plant response rating, Ryegrass, Italian", "setting": "[1]; [16]", "result": 100},
      {"measurement": "Plant response rating, Wheat, Spring", "setting": "[2]; [13]", "result": 0},
      {"measurement": "Plant response rating, Wheat, Spring", "setting": "[2]; [14]", "result": 0},
      {"measurement": "Plant response rating, Wheat, Spring", "setting": "[2]; [15]", "result": 20},
      {"measurement": "Plant response rating, Wheat, Spring", "setting": "[2]; [16]", "result": 50},
      {"measurement": "Plant response rating, Barley, Winter", "setting": "[3]; [13]", "result": 0},
      {"measurement": "Plant response rating, Barley, Winter", "setting": "[3]; [14]", "result": 0},
      {"measurement": "Plant response rating, Barley, Winter", "setting": "[3]; [15]", "result": 0},
      {"measurement": "Plant response rating, Barley, Winter", "setting": "[3]; [16]", "result": 20},
      {"measurement": "Plant response rating, Ryegrass, Italian", "setting": "[4]; 16 g ai/ha, Preemergence", "result": 98},
      {"measurement": "Plant response rating, Ryegrass, Italian", "setting": "[4]; 31 g ai/ha, Preemergence", "result": 100},
      {"measurement": "Plant response rating, Ryegrass, Italian", "setting": "[4]; 62 g ai/ha, Preemergence", "result": 100},
      {"measurement": "Plant response rating, Ryegrass, Italian", "setting": "[4]; Postemergence, 8 g ai/ha", "result": 35},
      {"measurement": "Plant response rating, Ryegrass, Italian", "setting": "[4]; Postemergence, 16 g ai/ha", "result": 75},
      {"measurement": "Plant response rating, Ryegrass, Italian", "setting": "[4]; Postemergence, 31 g ai/ha", "result": 90},
      {"measurement": "Plant response rating, Ryegrass, Italian", "setting": "[4]; Postemergence, 62 g ai/ha", "result": 95},
      {"measurement": "Plant response rating, Bluegrass", "setting": "[5]; 8 g ai/ha, Preemergence", "result": 0},
      {"measurement": "Plant response rating, Bluegrass", "setting": "[5]; 16 g ai/ha, Preemergence", "result": 0},
      {"measurement": "Plant response rating, Bluegrass", "setting": "[5]; 31 g ai/ha, Preemergence", "result": 0},
      {"measurement": "Plant response rating, Bluegrass", "setting": "[5]; 62 g ai/ha, Preemergence", "result": 0},
      {"measurement": "Plant response rating, Bluegrass", "setting": "[5]; Postemergence, 8 g ai/ha", "result": 0},
      {"measurement": "Plant response rating, Bluegrass", "setting": "[5]; Postemergence, 16 g ai/ha", "result": 0},
      {"measurement": "Plant response rating, Bluegrass", "setting": "[5]; Postemergence, 31 g ai/ha", "result": 5},
      {"measurement": "Plant response rating, Bluegrass", "setting": "[5]; Postemergence, 62 g ai/ha", "result": 5},
      {"measurement": "Plant response rating, Signalgrass", "setting": "[6]; 16 g ai/ha, Preemergence", "result": 75},
      {"measurement": "Plant response rating, Signalgrass", "setting": "[6]; 31 g ai/ha, Preemergence", "result": 98},
      {"measurement": "Plant response rating, Signalgrass", "setting": "[6]; 62 g ai/ha, Preemergence", "result": 100},
      {"measurement": "Plant response rating, Signalgrass", "setting": "[6]; Postemergence, 8 g ai/ha", "result": 75},
      {"measurement": "Plant response rating, Signalgrass", "setting": "[6]; Postemergence, 16 g ai/ha", "result": 75},
      {"measurement": "Plant response rating, Signalgrass", "setting": "[6]; Postemergence, 31 g ai/ha", "result": 95},
      {"measurement": "Plant response rating, Signalgrass", "setting": "[6]; Postemergence, 62 g ai/ha", "result": 100},
      {"measurement": "Plant response rating, Mallow", "setting": "[7]; 16 g ai/ha, Preemergence", "result": 0},
      {"measurement": "Plant response rating, Mallow", "setting": "[7]; 31 g ai/ha, Preemergence", "result": 0},
      {"measurement": "Plant response rating, Mallow", "setting": "[7]; 62 g ai/ha, Preemergence", "result": 0},
      {"measurement": "Plant response rating, Mallow", "setting": "[7]; Postemergence, 8 g ai/ha", "result": 0},
      {"measurement": "Plant response rating, Mallow", "setting": "[7]; Postemergence, 16 g ai/ha", "result": 0},
      {"measurement": "Plant response rating, Mallow", "setting": "[7]; Postemergence, 31 g ai/ha", "result": 0},
      {"measurement": "Plant response rating, Mallow", "setting": "[7]; Postemergence, 62 g ai/ha", "result": 0},
      {"measurement": "Plant response rating, Guineagrass", "setting": "[8]; 16 g ai/ha, Preemergence", "result": 100},
      {"measurement": "Plant response rating, Guineagrass", "setting": "[8]; 31 g ai/ha, Preemergence", "result": 100},
      {"measurement": "Plant response rating, Guineagrass", "setting": "[8]; 62 g ai/ha, Preemergence", "result": 100},
      {"measurement": "Plant response rating, Guineagrass", "setting": "[8]; Postemergence, 8 g ai/ha", "result": 80},
      {"measurement": "Plant response rating, Guineagrass", "setting": "[8]; Postemergence, 16 g ai/ha", "result": 80},
      {"measurement": "Plant response rating, Guineagrass", "setting": "[8]; Postemergence, 31 g ai/ha", "result": 90},
      {"measurement": "Plant response rating, Guineagrass", "setting": "[8]; Postemergence, 62 g ai/ha", "result": 95},
      {"measurement": "Plant response rating, Itchgrass", "setting": "[9]; 16 g ai/ha, Preemergence", "result": 60},
      {"measurement": "Plant response rating, Itchgrass", "setting": "[9]; 31 g ai/ha, Preemergence", "result": 80},
      {"measurement": "Plant response rating, Itchgrass", "setting": "[9]; 62 g ai/ha, Preemergence", "result": 80},
      {"measurement": "Plant response rating, Itchgrass", "setting": "[9]; Postemergence, 8 g ai/ha", "result": 40},
      {"measurement": "Plant response rating, Itchgrass", "setting": "[9]; Postemergence, 16 g ai/ha", "result": 65},
      {"measurement": "Plant response rating, Itchgrass", "setting": "[9]; Postemergence, 31 g ai/ha", "result": 70},
      {"measurement": "Plant response rating, Itchgrass", "setting": "[9]; Postemergence, 62 g ai/ha", "result": 75},
      {"measurement": "Plant response rating, Crabgrass, Naked", "setting": "[10]; 8 g ai/ha, Preemergence", "result": 75},
      {"measurement": "Plant response rating, Crabgrass, Naked", "setting": "[10]; 16 g ai/ha, Preemergence", "result": 95},
      {"measurement": "Plant response rating, Crabgrass, Naked", "setting": "[10]; 31 g ai/ha, Preemergence", "result": 100},
      {"measurement": "Plant response rating, Crabgrass, Naked", "setting": "[10]; 62 g ai/ha, Preemergence", "result": 100},
      {"measurement": "Plant response rating, Crabgrass, Naked", "setting": "[10]; Postemergence, 8 g ai/ha", "result": 75},
      {"measurement": "Plant response rating, Crabgrass, Naked", "setting": "[10]; Postemergence, 16 g ai/ha", "result": 90},
      {"measurement": "Plant response rating, Crabgrass, Naked", "setting": "[10]; Postemergence, 31 g ai/ha", "result": 90},
      {"measurement": "Plant response rating, Crabgrass, Naked", "setting": "[10]; Postemergence, 62 g ai/ha", "result": 98},
      {"measurement": "Plant response rating, Morningglory", "setting": "[11]; 16 g ai/ha, Preemergence", "result": 0},
      {"measurement": "Plant response rating, Morningglory", "setting": "[11]; 31 g ai/ha, Preemergence", "result": 0},
      {"measurement": "Plant response rating, Morningglory", "setting": "[11]; 62 g ai/ha, Preemergence", "result": 0},
      {"measurement": "Plant response rating, Morningglory", "setting": "[11]; Postemergence, 8 g ai/ha", "result": 0},
      {"measurement": "Plant response rating, Morningglory", "setting": "[11]; Postemergence, 16 g ai/ha", "result": 0},
      {"measurement": "Plant response rating, Morningglory", "setting": "[11]; Postemergence, 31 g ai/ha", "result": 0},
      {"measurement": "Plant response rating, Morningglory", "setting": "[11]; Postemergence, 62 g ai/ha", "result": 0},
      {"measurement": "Plant response rating, Nutsedge, Purple", "setting": "[12]; 16 g ai/ha, Preemergence", "result": 0},
      {"measurement": "Plant response rating, Nutsedge, Purple", "setting": "[12]; 31 g ai/ha, Preemergence", "result": 0},
      {"measurement": "Plant response rating, Nutsedge, Purple", "setting": "[12]; 62 g ai/ha, Preemergence", "result": 0},
      {"measurement": "Plant response rating, Nutsedge, Purple", "setting": "[12]; Postemergence, 8 g ai/ha", "result": 0},
      {"measurement": "Plant response rating, Nutsedge, Purple", "setting": "[12]; Postemergence, 16 g ai/ha", "result": 0},
      {"measurement": "Plant response rating, Nutsedge, Purple", "setting": "[12]; Postemergence, 31 g ai/ha", "result": 0},
      {"measurement": "Plant response rating, Nutsedge, Purple", "setting": "[12]; Postemergence, 62 g ai/ha", "result": 0}
    ]}
  ]
}
